Converted amounts (≈) assume the structure as drawn.
Legend:
Format in all cases: cell-based
[1] = test system: Enterobacter cloacae IFO 12937; experiment: MIC by agar dilution method (Experimental Example); settings: IFO12937; test organism (1) Enterobacter cloacae IFO 12937; Trypticase soy agar; inoculum about 10^8 CFU/ml; overnight culture at 37°C; complete growth inhibition
Method: (§1) The MIC of each test compound was determined by the agar dilution method. Thus, a stock aqueous solution of each test compound is serially diluted and the resultant dilution series are put in petri dishes. Then, 9.0 ml of Trypticase soy agar per dish is added and mixed. Each of the agar plates is smeared with a suspension of the test organism (about 10^8 CFU/ml). After overnight culture at 37°C, the minimum concentration of the test compound that caused a complete growth inhibition of the organism is taken as the MIC (minimal inhibitory concentration) value.
(§2) • (1) Enterobacter cloacae IFO 12937 • (2) Klebsiella pneumoniae TN 1711

[2] = test system: Klebsiella pneumoniae TN 1711; experiment: MIC by agar dilution method (Experimental Example); settings: TN1711; test organism (2) Klebsiella pneumoniae TN 1711; Trypticase soy agar; inoculum about 10^8 CFU/ml; overnight culture at 37°C; complete growth inhibition
Method: as §1, §2

[3] = test system: Pseudomonas aeruginosa GN 3407; experiment: MIC by agar dilution method (Test Example); settings: GN3407; test organism (3) Pseudomonas aeruginosa GN 3407; Trypticase soy agar; inoculum about 10^6 CFU/ml; overnight at 37°C
Method: (§3) The MIC values for the test compounds were determined by the agar dilution method. Thus, 1.0 ml of each serially diluted aqueous solution of each test compound was poured into a petri dish. Then, 9.0 ml of Trypticase soy agar was added and mixed with the aqueous solution. A suspension of the test organism (about 10^6 CFU/ml) was smeared onto the mixed agar plate and incubated overnight at 37°C.
(§4) • (1) Enterobacter cloacae IFO 12937 • (2) Klebsiella pneumoniae TN 1711 • (3) Pseudomonas aeruginosa GN 3407

[4] = test system: Enterobacter cloacae IFO 12937; experiment: MIC by agar dilution method (Test Example); settings: IFO12937; test organism (1) Enterobacter cloacae IFO 12937; Trypticase soy agar; inoculum about 10^6 CFU/ml; overnight at 37°C
Method: as §3, §4

[5] = test system: Klebsiella pneumoniae TN 1711; experiment: MIC by agar dilution method (Test Example); settings: TN1711; test organism (2) Klebsiella pneumoniae TN 1711; Trypticase soy agar; inoculum about 10^6 CFU/ml; overnight at 37°C
Method: as §3, §4

CC(C)(O/N=C(\C(=O)N[C@@H]1C(=O)N(S(=O)(=O)[O-])[C@@H]1C[n+]1ccccc1)c1csc(N)n1)C(=O)O (relative stereo) [Monosodium cis-3-[2-(2-amino-4-thiazolyl)-2-(Z)-(1-carboxylato-1-methylethoxyimino)acetamido]-4-pyridiniomethyl-2-azetidinone-1-sulfonate]
MIC [1]: 3.13 µg/mL
MIC [2]: 12.5 µg/mL

CO/N=C(\C(=O)N[C@@H]1C(=O)N(S(=O)(=O)O)[C@@H]1C(N)=O)c1csc(N)n1 (relative stereo) [Sodium cis-3-[2-(2-amino-4-thiazolyl)-2-(Z)-methoxyiminoacetamido]-4-carbamoyl-2-azetidinone-1-sulfonate]
MIC [1]: 1.56 µg/mL
MIC [2]: 0.39 µg/mL

COC(=O)CC[C@@H]1[C@H](NC(=O)/C(=N\OC(C)(C)C(=O)O)c2csc(N)n2)C(=O)N1S(=O)(=O)O (relative stereo) [cis-3-[2-(2-Amino-4-thiazolyl)-2-(Z)-(1-carboxy-1-methylethoxyamino)acetamido]-4-(2-methoxy-carbonylethyl)-2-azetidinone-1-sulfonic acid]
MIC [1]: 6.25 µg/mL (≈ 12.3 µM)
MIC [2]: 3.13 µg/mL (≈ 6.17 µM)

COC[C@@H]1[C@H](NC(=O)/C(=N\OC(C)(C)C(=O)O)c2csc(N)n2)C(=O)N1S(=O)(=O)O (relative stereo) [cis-3-[2-(2-Amino-4-thiazolyl)-2-(Z)-(1-carboxy-1-methylethoxyimino)acetamido]-4-methoxymethyl-2-azetidinone-1-sulfonic acid]
MIC [1]: 1.56 µg/mL (≈ 3.35 µM)
MIC [2]: 0.2 µg/mL (≈ 0.43 µM)

CC(C)(O/N=C(\C(=O)N[C@@H]1C(=O)N(S(=O)(=O)O)[C@@H]1CS(C)(=O)=O)c1csc(N)n1)C(=O)O (relative stereo) [cis-3-[2-(2-Amino-4-thiazolyl)-2-(Z)-(1-carboxy-1-methylethoxyimino)acetamido]-4-methylsulfonyl-methyl-2-azetidinone-1-sulfonic acid]
MIC [1]: 12.5 µg/mL (≈ 24.3 µM)
MIC [2]: 1.56 µg/mL (≈ 3.04 µM)

CC(C)(O/N=C(\C(=O)N[C@@H]1C(=O)N(S(=O)(=O)O)[C@@H]1CNC(N)=O)c1csc(N)n1)C(=O)O (relative stereo) [cis-3-[2-(2-Amino-4-thiazolyl)-2-(Z)-(1-carboxy-1-methylethoxyimino)acetamido]-4-ureidomethyl-2-azetidinone-1-sulfonic acid]
MIC [1]: 12.5 µg/mL (≈ 25.3 µM)
MIC [2]: 3.13 µg/mL (≈ 6.34 µM)

C[S+]([O-])C[C@@H]1[C@H](NC(=O)/C(=N\OC(C)(C)C(=O)O)c2csc(N)n2)C(=O)N1S(=O)(=O)O (relative stereo) [cis-3-[2-(2-Amino-4-thiazolyl)-2-(Z)-(1-carboxy-1-methylethoxyimino]acetamido]-4-methylsulfinyl-methyl-2-azetidinone-1-sulfonic acid]
MIC [1]: 3.13 µg/mL (≈ 6.29 µM)
MIC [2]: 0.78 µg/mL (≈ 1.57 µM)

COC[C@@H]1[C@H](NC(=O)/C(=N\OCC(=O)O)c2csc(N)n2)C(=O)N1S(=O)(=O)O (relative stereo) [cis-3-[2-(2-Amino-4-thiazolyl)-2-(Z)-carboxy-methoxyiminoacetamido]-4-methoxymethyl-2-azetidinone-1-sulfonic acid]
MIC [1]: 3.13 µg/mL (≈ 7.16 µM)
MIC [2]: 0.1 µg/mL (≈ 0.229 µM)

NC(=O)OC[C@@H]1[C@H](NC(=O)/C(=N\OCC(=O)O)c2csc(N)n2)C(=O)N1S(=O)(=O)O [Example 2']
MIC [3]: 1.56 µg/mL (≈ 3.34 µM)
MIC [4]: 0.05 µg/mL (≈ 0.107 µM)
MIC [5]: 0.05 µg/mL (≈ 0.107 µM)

CC(C)(O/N=C(\C(=O)N[C@@H]1C(=O)N(S(=O)(=O)O)[C@@H]1COC(N)=O)c1csc(N)n1)C(=O)O [Example 4']
MIC [3]: 6.25 µg/mL (≈ 12.6 µM)
MIC [4]: 0.39 µg/mL (≈ 0.789 µM)
MIC [5]: 0.1 µg/mL (≈ 0.202 µM)

CCC[C@H]1[C@H](NC(=O)/C(=N\OC(C)(C)C(=O)O)c2csc(N)n2)C(=O)N1S(=O)(=O)O [Sodium [3S,4S]-3-[(2-(2-aminothiazol-4-yl)-2-(Z)-(1-carboxy-1-methylethoxyimino)acetamido]-4-propyl-2-azetidinone-1-sulfonate]
MIC [1]: 12.5 µg/mL
MIC [2]: 0.78 µg/mL

CC(=O)CC1C(NC(=O)C(=NOC(C)(C)C(=O)O)c2csc(N)n2)C(=O)N1S(=O)(=O)O (centres unmarked) [Sodium [3S,4S]-3-[(2-(2-aminothiazol-4-yl)-2-(Z)-(1-carboxy-1-methylethoxyimino]acetamido]-4-(2-oxopropyl)-2-azetidinone-1-sulfonate]
MIC [1]: 12.5 µg/mL
MIC [2]: 3.13 µg/mL

CON=C(C(=O)NC1C(=O)N(S(=O)(=O)O)C1CC(C)=O)c1csc(N)n1 (stereo not drawn) [Sodium [3S,4S]-cis-3-[(2-(2-aminothiazol-4-yl)-2-(Z)-methoxyimino]acetamido]-4-(2-oxopropyl)-2-azetidinone-1-sulfonate]
MIC [1]: 3.13 µg/mL
MIC [2]: 3.13 µg/mL

CO/N=C(\C(=O)N[C@@H]1C(=O)N(S(=O)(=O)O)[C@H]1CC(C)=O)c1csc(N)n1 [Sodium [3S, 4S]-trans-3-[2-(2-aminothiazol-4-yl]-2-(Z)-methoxyimino]acetamido]-4-(2-oxopropyl)-2-azetidinone-1-sulfonate]
MIC [1]: 6.25 µg/mL

Source: patent publication EP0093376B2, “1-Sulfo-2-azetidinone derivatives, their production and use” (Takeda Chemical Industries, Ltd., priority 1982, dated 1983)
